This is an account of results in US20200069691A1, “HETEROCYCLIC COMPOUNDS AS HIV PROTEASE INHIBITORS” (Merck Sharp & Dohme Corp., priority 2016, published 2020).

The assay deals with T1, wild-type HIV-1 protease (Human immunodeficiency virus type 1 group M subtype B, UniProt P04585).
T1 construct: Escherichia coli expressed wild-type HIV-1 protease protein
The assay is described as follows: Assay for Inhibition of Microbial Expressed HIV Protease (peptide substrate cleavage, LC-MS/MS readout). The class given is biochemical. The conditions noted are these: E. coli expressed wild-type HIV-1 protease, mean of at least two independent experiments, read-out: HIV Pr Enzyme HIV1 PR IC50. The procedure: Assay for Inhibition of Microbial Expressed HIV Protease
Inhibition of Escherichia coli expressed wild-type HIV-1 protease protein was carried out with a peptide substrate [Val-Ser-Gln-Asn-(βnaphtyl)Ala-Pro-Ile-Val]. The inhibitor compound was preincubated with HIV-1 protease enzyme in assay buffer (50 mM sodium acetate, pH 5.5, 100 mM NaCl, and 0.1% BSA) for 30 minutes at room temperature. Peptide substrate was added to 400 μM in a total volume of 20 μL containing […] HIV-1 protease (final) after which the reaction was incubated for 1 hour at 30° C. […] The extent of inhibition of the reaction was determined from the peak area of the products.
Data shown in the table reflects the mean of at least two independent experiments.

pIC50: −log10 of the molar value.

By pIC50 is commonly meant the negative decadic logarithm of the IC50, by convention in mol/L.

As for `N=C1NC(c2ccc(F)cc2)(c2ccccn2)C(=O)N1Cc1cccc(C(=O)N2Cc3ccccc3C2)c1` (centres unmarked) [Compound 256, 3-[3-(1,3-dihydro-2H-isoindol-2-ylcarbonyl)benzyl]-5-(4-fluorophenyl)-2-imino-5-pyridin-2-ylimidazolidin-4-one], the pIC50 was 7.68.

On to `N=C1NC(CCC2CC2)(c2cccc(C(F)(F)F)c2)C(=O)N1Cc1ccc(C(F)(F)F)c(C(=O)N2Cc3nccnc3C2)c1` (centres unmarked) [Compound 114, 5-(2-cyclopropylethyl)-3-[3-(5,7-dihydro-6H-pyrrolo[3,4-b]pyrazin-6-ylcarbonyl)-4-(trifluoromethyl)-benzyl]-2-imino-5-[3-(trifluoromethyl)-phenyl]-imidazolidin-4-one], for which the pIC50 is 7.46.

As for `N=C1N[C@](CCCC(F)(F)F)(c2ccc(F)cc2)C(=O)N1Cc1ccc(C(F)(F)F)c(C(=O)N2Cc3cnc(N4CCOCC4)nc3C2)c1` [Compound 83, (5R)-5-(4-fluorophenyl)-2-imino-3-{3-[(2-morpholin-4-yl-5,7-dihydro-6H-pyrrolo[3,4-d]pyrimidin-6-yl)carbonyl]-4-(trifluoromethyl)-benzyl}-5-(4,4,4-trifluorobutyl)imidazolidin-4-one], the pIC50 is 7.86.

Regarding `N=C1NC(c2ccccc2)(c2ccccc2)C(=O)N1Cc1cccc(C(=O)N2CCc3ccncc3C2)c1` [Compound 313, 3-[3-(3,4-dihydro-2,7-naphthyridin-2(1H)-ylcarbonyl)benzyl]-2-imino-5,5-diphenylimidazolidin-4-one], the pIC50 was 7.28.

Turning to `N=C1NC(c2ccccc2)(c2ccccc2)C(=O)N1Cc1cccc(C(=O)N2Cc3[nH]nc(C(F)(F)F)c3C2)c1` [Compound 184, 2-imino-5,5-diphenyl-3-(3-{[3-(trifluoromethyl)-4,6-dihydropyrrolo[3,4-c]pyrazol-5(1H)-yl]carbonyl}benzyl) imidazolidin-4-one], the pIC50 was 8.56.

`Cc1ncc2c(n1)CN(C(=O)c1cccc(CN3C(=N)NC(c4ccccc4)(c4ccccc4)C3=O)c1)C2` [Compound 290, 2-imino-3-{3-[(2-methyl-5,7-dihydro-6H-pyrrolo[3,4-d]pyrimidin-6-yl)carbonyl]benzyl}-5,5-diphenylimidazolidin-4-one]: the pIC50 is 7.44.

Turning to `N=C1N[C@](CCCC(F)(F)F)(c2ccc(F)cc2)C(=O)N1Cc1ccc(C(F)(F)F)c(C(=O)N2Cc3cnc(-c4cccc(-n5nccn5)c4)nc3C2)c1` [Compound 95, (5R)-5-(4-fluorophenyl)-2-imino-3-[3-({2-[3-(2H-1,2,3-triazol-2-yl)phenyl]-5,7-dihydro-6H-pyrrolo-[3,4-d]pyrimidin-6-yl}carbonyl)-4-(trifluoromethyl)benzyl]-5-(4,4,4-trifluorobutyl)imidazolidin-4-one], the pIC50 was 7.71.

As to `CCCC1(c2ccccc2)NC(=N)N(Cc2cccc(C(=O)N3Cc4cnc(C)nc4C3)c2)C1=O` (centres unmarked) [Compound 345, 2-imino-3-{3-[(2-methyl-5,7-dihydro-6H-pyrrolo[3,4-d]pyrimidin-6-yl)carbonyl]benzyl}-5-phenyl-5-propylimidazolidin-4-one], the pIC50 is 7.09.

For the molecule `N=C1NC(c2ccccc2)(c2ccccc2)C(=O)N1Cc1cccc(C(=O)N2Cc3cnc(C(F)(F)F)nc3C2)c1` [Compound 242, 2-imino-5,5-diphenyl-3-(3-{[2-(trifluoromethyl)-5,7-dihydro-6H-pyrrolo[3,4-d]pyrimidin-6-yl]carbonyl}benzyl) imidazolidin-4-one], the pIC50 is 7.78.

For the molecule `N=C1NC(c2ccccc2)(c2ccccc2)C(=O)N1Cc1ccc(C(F)(F)F)c(C(=O)N2Cc3cncnc3C2)c1` [Compound 145, 3-[3-(5,7-dihydro-6H-pyrrolo[3,4-d]pyrimidin-6-ylcarbonyl)-4-(trifluoromethyl)benzyl]-2-imino-5,5-diphenylimidazolidin-4-one], the pIC50 was 8.39.

On to `CC(C)CC[C@]1(c2ccc(F)cc2)NC(=N)N(C(Cc2ccccc2)c2ccc(C(F)(F)F)c(C(=O)N3CCn4c(nnc4C(F)(F)F)C3)c2)C1=O` (stereo partly drawn) [Compound 54, (5R)-5-(4-fluorophenyl)-2-imino-5-(3-methylbutyl)-3-{2-phenyl-1-[4-(trifluoromethyl)-3-{[3-(trifluoromethyl)-5,6-dihydro-[1,2,4]triazolo[4,3-a]pyrazin-7(8H)-yl]carbonyl}phenyl]ethyl} imidazolidin-4-one], for which the pIC50 is 8.25.

`N=C1N[C@](CCCC(F)(F)F)(c2ccc(F)cc2)C(=O)N1Cc1ccc(C(F)(F)F)c(C(=O)N2Cc3cnc(-c4cccc(-c5ccn[nH]5)c4)nc3C2)c1` [Compound 40, (5R)-5-(4-fluorophenyl)-2-imino-3-[3-({2-[3-(1H-pyrazol-5-yl)phenyl]-5,7-dihydro-6H-pyrrolo[3,4-d]pyrimidin-6-yl}carbonyl)-4-(trifluoromethyl)benzyl]-5-(4,4,4-trifluorobutyl)imidazolidin-4-one]: the pIC50 is 8.38.

For the molecule `N=C1NC(c2ccc(F)cc2)(c2ccc(F)cc2)C(=O)N1Cc1ccc(C(F)(F)F)c(C(=O)N2Cc3cncnc3C2)c1` [Compound 138, 3-[3-(5,7-dihydro-6H-pyrrolo[3,4-d]pyrimidin-6-ylcarbonyl)-4-(trifluoromethyl)benzyl]-5,5-bis(4-fluorophenyl)-2-iminoimidazolidin-4-one], the pIC50 was 8.56.

In the case of `N=C1NC(c2ccccc2)(c2ccccc2)C(=O)N1Cc1cccc(C(=O)N2Cc3nccnc3C2)c1` [Compound 219, 3-[3-(5,7-dihydro-6H-pyrrolo[3,4-b]pyrazin-6-ylcarbonyl)benzyl]-2-imino-5,5-diphenylimidazolidin-4-one], the pIC50 was 7.96.

As for `CC(C)C[C@]1(c2ccccc2)NC(=N)N([C@H](C)c2ccc(C(F)(F)F)c(C(=O)N3Cc4nccnc4C3)c2)C1=O` [Compound 147, (5R)-3-{(1R)-1-[3-(5,7-dihydro-6H-pyrrolo[3,4-b]pyrazin-6-ylcarbonyl)-4-(trifluoromethyl)phenyl]ethyl}-2-imino-5-(2-methylpropyl)-5-phenylimidazolidin-4-one], the pIC50 is 8.32.

As to `CC(C)CCC1(c2ccccc2)NC(=N)N(Cc2ccc(C(F)(F)F)c(C(=O)N3CCCC3)c2)C1=O` (centres unmarked) [Compound 170, 2-imino-5-(3-methylbutyl)-5-phenyl-3-[3-(pyrrolidin-1-ylcarbonyl)-4-(trifluoromethyl)benzyl] imidazolidin-4-one], the pIC50 is 7.40.

As for `CC(C)CCC1(c2ccc(F)cc2)NC(=N)N(Cc2ccc(C(F)(F)F)c(C(=O)N3CCc4c(cnn4-c4ccccc4)C3)c2)C1=O` (centres unmarked) [Compound 164, 5-(4-fluorophenyl)-2-imino-5-(3-methylbutyl)-3-{3-[(1-phenyl-1,4,6,7-tetrahydro-5H-pyrazolo[4,3-c]pyridin-5-yl)carbonyl]-4-(trifluoromethyl)benzyl} imidazolidin-4-one], the pIC50 is 7.47.

Take `N=C1N[C@](CCCC(F)(F)F)(c2ccc(F)cc2)C(=O)N1Cc1ccc(C(F)(F)F)c(C(=O)N2Cc3cnc(NC4CCC4)nc3C2)c1` [Compound 85, (5R)-3-[3-{[2-(cyclobutylamino)-5,7-dihydro-6H-pyrrolo[3,4-d]pyrimidin-6-yl]carbonyl}-4-(trifluoromethyl)benzyl]-5-(4-fluorophenyl)-2-imino-5-(4,4,4-trifluorobutyl)imidazolidin-4-one]: the pIC50 was 7.84.

For the molecule `CC(C)(O)C(=O)N1CCN(C(=O)c2cc(CN3C(=N)N[C@](CCCC(F)(F)F)(c4ccc(F)cc4)C3=O)ccc2C(F)(F)F)CC1` [Compound 90, (5R)-5-(4-fluorophenyl)-3-[3-{[4-(2-hydroxy-2-methylpropanoyl)-piperazin-1-yl]carbonyl}-4-(trifluoromethyl)benzyl]-2-imino-5-(4,4,4-trifluorobutyl)imidazolidin-4-one], the pIC50 was 7.80.

Take `CC(C)C[C@]1(c2ccccc2)NC(=N)N([C@H](C)c2cccc(C(=O)N3Cc4cncnc4C3)c2)C1=O` [Compound 261, 3-{(1R)-1-[3-(5,7-dihydro-6H-pyrrolo[3,4-d]pyrimidin-6-ylcarbonyl)phenyl]ethyl}-2-imino-5-(2-methylpropyl)-5-phenylimidazolidin-4-one]: the pIC50 was 7.63.

On to `N=C1NC(c2ccc(F)cc2)(c2ccc(F)cc2)C(=O)N1Cc1cc(C(=O)N2Cc3nccnc3C2)ccn1` [Compound 402, 3-{[4-(5,7-dihydro-6H-pyrrolo[3,4-b]pyrazin-6-ylcarbonvl)pyridin-2-yl]methyl}-5,5-bis(4-fluorophenyl)-2-iminoimidazolidin-4-one], for which the pIC50 was 7.47.

Consider `COc1cc(-c2ncc3c(n2)CN(C(=O)c2cc(CN4C(=N)N[C@](CCCC(F)(F)F)(c5ccc(F)cc5)C4=O)ccc2C(F)(F)F)C3)ccn1` [Compound 52, (5R)-5-(4-fluorophenyl)-2-imino-3-[3-{[2-(2-methoxypyridin-4-yl)-5,7-dihydro-6H-pyrrolo[3,4-d]pyrimidin-6-yl]carbonyl}-4-(trifluoromethyl)benzyl]-5-(4,4,4-trifluorobutyl)imidazolidin-4-one], for which the pIC50 is 8.25.

Regarding `N=C1N[C@](CCCC(F)(F)F)(c2ccc(F)cc2)C(=O)N1Cc1ccc(C(F)(F)F)c(C(=O)N2Cc3cnc(-c4ccccc4)nc3C2)c1` [Compound 94, (5R)-5-(4-fluorophenyl)-2-imino-3-{3-[(2-phenyl-5,7-dihydro-6H-pyrrolo[3,4-d]pyrimidin-6-yl)carbonyl]-4-(trifluoromethyl)-benzyl}-5-(4,4,4-trifluorobutyl)-imidazolidin-4-one], the pIC50 was 7.72.
